pIC50: −log10 of the molar value.
Columns and labels:
[1] = biological target: T1, Tyro-3 (h) (Homo sapiens, UniProt Q06418); assay: Enzymatic activity assay, Tyro-3 (h), [γ-33P]-ATP filter assay; type: biochemical; conditions: 10 μM ATP, 40 min room temperature; read-out: Inhibitory activity IC50 Tyro-3(h)
T1 sequence (Q06418 41-890): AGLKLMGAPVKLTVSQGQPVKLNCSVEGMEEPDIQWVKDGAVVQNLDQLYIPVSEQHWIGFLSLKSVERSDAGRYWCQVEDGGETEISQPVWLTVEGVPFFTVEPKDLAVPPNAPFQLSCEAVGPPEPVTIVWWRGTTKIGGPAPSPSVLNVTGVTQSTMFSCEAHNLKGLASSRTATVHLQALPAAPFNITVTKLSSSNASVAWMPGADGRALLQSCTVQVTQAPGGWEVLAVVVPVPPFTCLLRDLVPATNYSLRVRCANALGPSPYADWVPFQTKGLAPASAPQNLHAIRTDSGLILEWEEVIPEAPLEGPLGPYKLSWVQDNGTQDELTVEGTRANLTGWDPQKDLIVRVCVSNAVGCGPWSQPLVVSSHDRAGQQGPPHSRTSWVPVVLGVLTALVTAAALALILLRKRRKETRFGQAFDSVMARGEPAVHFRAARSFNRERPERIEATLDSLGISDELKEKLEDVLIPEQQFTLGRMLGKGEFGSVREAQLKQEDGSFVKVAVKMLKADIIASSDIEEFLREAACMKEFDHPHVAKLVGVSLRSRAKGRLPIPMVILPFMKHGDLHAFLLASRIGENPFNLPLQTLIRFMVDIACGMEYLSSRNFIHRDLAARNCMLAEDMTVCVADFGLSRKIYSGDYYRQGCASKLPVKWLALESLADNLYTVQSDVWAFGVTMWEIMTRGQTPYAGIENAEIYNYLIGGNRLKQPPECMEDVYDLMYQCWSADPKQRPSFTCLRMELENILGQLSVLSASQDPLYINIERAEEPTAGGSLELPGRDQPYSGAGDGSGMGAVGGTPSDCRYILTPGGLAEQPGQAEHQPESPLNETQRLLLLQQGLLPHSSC
Experimental: Compounds were each dissolved in 100% DMSO to prepare stock solutions with a maximum concentration of 500 μM.
Compound working solutions (50×) were prepared by diluting a compound stock solution to a final concentration of 500, 150, 50, 15, 5, 1.5, 0.5, 0.15 and 0.05 μM.
An enzyme solution with a final concentration of 38 nM was prepared by dissolving Tyro3 (h) enzyme in a mixture of 8 mM MOPS (pH 7.0), 0.2 mM EDTA, 1 mM MnCl2 and 250 μM KVEKIGEGTYGVVYK. A Mg/ATP mixture of 10 mM magnesium acetate and 10 μM [γ-^33P]-ATP was used to activate the enzymatic reaction.
A compound working solution was added to a 384-well plate, with final concentrations of 10,000, 3,000, 1,000, 300, 100, 30, 10, 3 and 1 nM, and then different enzymatic reaction solutions prepared according to the above conditions were added. The reaction solutions were incubated at room temperature for 40 min, and then 0.5% phosphoric acid solutions were added to terminate the reaction. 10 μL of the reaction solution was added dropwise to P30 filter paper, washed 4 times with a 0.425% phosphoric acid solution and once with methanol, and then placed in a scintillation counter for detection. Gray analysis was performed on the results with Image J software, and IC50 values were calculated with GraphPad 5.0 software.

[2] = Liver microsomal stability; type: in vitro ADME; conditions: mouse liver microsomes, 0.5 mg protein/mL, 1 μM compound
Experimental: An appropriate amount of the compound was precisely weighed and dissolved in DMSO to prepare a 5.0 mM stock solution. The 5.0 mM stock solution was diluted with DMSO to 1.0 mM, and finally diluted with water to a 10 μM working solution of the test sample for use (the DMSO content in the reaction system was 0.1%).
(1) The liver microsomes (20 mg protein/mL) were taken from a −80° C. refrigerator, pre-incubated on a 37° C. water bath thermostatic oscillator for 3 min, and thawed for use.
(2) An incubation system (without compound and β-NADPH) was prepared according to “composition of the incubation system” described above, and pre-incubated on a 37° C. water bath thermostatic oscillator for 2 min.
(3) Control group (without β-NADPH): 30 μL of water and 30 μL of compound working solution (10 μM) were added to 240 μL of the incubation system in step (2), and the reaction system was vortexed for 30 s and thoroughly mixed. The total volume of the reaction system was 300 μL. The sample was duplicated. The reaction solution was placed on a 37° C. water bath thermostatic oscillator for incubation, and timing was started. The sampling was conducted at 0 min and 60 min.
(4) Sample group: 70 μL of β-NADPH solution (10 mM) and 70 μL of compound working solution (10 μM) were added to 560 μL of the incubation system in step (2), and the total volume of the reaction system was 700 μL. The reaction solution was vortexed for 30 s and thoroughly mixed. The sample was duplicated. The reaction solution was placed on a 37° C. water bath thermostatic oscillator for incubation, and timing was started. The sampling was conducted at 0 min, 5 min, 10 min, 20 min, 30 min and 60 min.
(5) The reaction solution was vortexed for 3 min, and centrifuged at 12,000 rpm for 5 min.
(6) 50 μL of the supernatant was added to 150 μL of water, and the resulting solution was thoroughly vortexed and analyzed by LC/MS/MS.

| pIC50 [1] | half-life at 1 μM [2] [h] | microsomal CLint at 1 μM [2] [µL/min/mg] | SMILES |
| --- | --- | --- | --- |
| 7.43 | – | – | COc1cc2nccc(Oc3ccc(NC(=O)c4cn(CC5CCOCC5)cc(-c5ccc(C)cc5)c4=O)nc3)c2cc1OC [Compound 1, N-(5-((6,7-dimethoxyquinolin-4-yl)oxy)pyridin-2-yl)-4-oxo-1-((tetrahydro-2H-pyran-4-yl)methyl)-5-(p-tolyl)-1,4-dihydropyridin-3-carboxamide] |
| 7.89 | – | – | COc1cc2nccc(Oc3ccc(NC(=O)c4nn(CC5CCOCC5)cc(-c5ccc(C)cc5)c4=O)nc3)c2cc1OC [Compound 2, N-(5-((6,7-dimethoxyquinolin-4-yl)oxy)pyridin-2-yl)-4-oxo-1-((tetrahydro-2H-pyran-4-yl)methyl)-5-(p-tolyl)-1,4-dihydropyridazin-3-carboxamide] |
| 6.75 | 3.22 | 7.2 | COc1cc2nccc(Oc3cnc(NC(=O)c4cn(CC5CCOCC5)cc(-c5ccc(C)cc5)c4=O)nc3)c2cc1OC [Compound 4, N-(5-((6,7-dimethoxyquinolin-4-yl)oxy)pyrimidin-2-yl)-4-oxo-1-((tetrahydro-2H-pyran-4-yl)methyl)-5-(p-tolyl)-1,4-dihydropyridin-3-carboxamide] |
| 6.72 | – | – | COc1cc2nccc(Oc3ccc(NC(=O)c4cn(CC5CCS(=O)(=O)CC5)cc(-c5ccc(C)cc5)c4=O)nc3)c2cc1OC [Compound 7, N-(5-((6,7-dimethoxyquinolin-4-yl)oxy)pyridin-2-yl)-1-((1,1-dioxotetrahydro-2H-thiopyran-4-yl)methyl)-4-oxo-5-(p-tolyl)-1,4-dihydropyridin-3-carboxamide] |
| 6.93 | 3.22 | 7.2 | COc1cc2nccc(Oc3ccc(NC(=O)c4cn(CC5CC[S+]([O-])CC5)cc(-c5ccc(C)cc5)c4=O)nc3)c2cc1OC (centres unmarked) [Compound 8, N-(5-((6,7-dimethoxyquinolin-4-yl)oxy)pyridin-2-yl)-1-((1-oxotetrahydro-2H-thiopyran-4-yl)methyl)-4-oxo-5-(p-tolyl)-1,4-dihydropyridin-3-carboxamide] |
| 7.55 | 0.818 | 28.2 | COc1cc2nccc(Oc3ccc(NC(=O)c4cn(CC5CCSCC5)cc(-c5ccc(C)cc5)c4=O)nc3)c2cc1OC [Compound 9, N-(5-((6,7-dimethoxyquinolin-4-yl)oxy)pyridin-2-yl)-4-oxo-1-((tetrahydro-2H-thiopyran-4-yl)methyl)-5-(p-tolyl)-1,4-dihydropyridin-3-carboxamide] |
| 7.03 | – | – | COc1cc2nccc(Oc3ccc(NC(=O)c4cc(-c5ccc(C)cc5)cn(CC5CCOCC5)c4=O)nc3)c2cc1OC [Compound 13, N-(5-((6,7-dimethoxyquinolin-4-yl)oxy)pyridin 2yl)-2-oxo-1-((tetrahydro-2H-pyran-4-yl)methyl)-5-(p-tolyl)-1,2-dihydropyridin-3-carboxamide] |
| 7.47 | 2.27 | 10.2 | COc1cc2nccc(Oc3ccc(NC(=O)c4cn(C5CCOCC5)cc(-c5ccc(C)cc5)c4=O)nc3)c2cc1OC [Compound 19, N-(5-((6,7-dimethoxyquinolin-4-yl)oxy)pyridin-2-yl)-4-oxo-1-(tetrahydro-2H-pyran-4-yl)-5-(p-tolyl)-1,4-dihydropyridin-3-carboxamide] |
| 6.67 | – | – | COc1cc2nccc(Oc3ccc(NC(=O)c4cn(CC5CCOCC5)cc(-c5ccc(C)cc5)c4=O)nn3)c2cc1OC [Compound 24, N-(6-((6,7-dimethoxyquinolin-4-yl)oxy)pyridazin-3-yl)-4-oxo-1-((tetrahydro-2H-pyran-4-yl)methyl)-5-(p-tolyl)-1,4-dihydropyridin-3-carboxamide] |

Continued, molecule first:

| SMILES | pIC50 [1] | half-life at 1 μM [2] [h] | microsomal CLint at 1 μM [2] [µL/min/mg] |
| --- | --- | --- | --- |
| COc1cc2nccc(Oc3cnc(NC(=O)c4nn(CC5CCOCC5)cc(-c5ccc(C)cc5)c4=O)nc3)c2cc1OC [Compound 16, N-(5-((6,7-dimethoxyquinolin-4-yl)oxy)pyrimidin-2-yl)-4-oxo-1-((tetrahydro-2H-pyran-4-yl)methyl)-5-(p-tolyl)-1,4-dihydropyridazin-3-carboxamide] | 7.64 | 3.5 | 6.6 |
| COc1cc2nccc(Oc3ccc(NC(=O)c4nn(C5CCOCC5)cc(-c5ccc(C)cc5)c4=O)nc3)c2cc1OC [Compound 17, N-(5-((6,7-dimethoxyquinolin-4-yl)oxy)pyridin-2-yl)-4-oxo-1-(tetrahydro-2H-pyran-4-yl)-5-(p-tolyl)-1,4-dihydropyridazin-3-carboxamide] | 7.85 | 1.87 | 12.4 |
| COc1cc2nccc(Oc3cnc(NC(=O)c4nn(C5CCOCC5)cc(-c5ccc(C)cc5)c4=O)nc3)c2cc1OC [Compound 18, N-(5-((6,7-dimethoxyquinolin-4-yl)oxy)pyrimidin-2-yl)-4-oxo-1-(tetrahydro-2H-pyran-4-yl)-5-(p-tolyl)-1,4-dihydropyridazin-3-carboxamide] | 7.24 | 1.93 | 12 |
| COc1cc2nccc(Oc3cnc(NC(=O)c4cn(C5CCOCC5)cc(-c5ccc(C)cc5)c4=O)nc3)c2cc1OC [Compound 20, N-(5-((6,7-dimethoxyquinolin-4-yl)oxy)pyrimidin-2-yl)-4-oxo-1-(tetrahydro-2H-pyran-4-yl)-5-(p-tolyl)-1,4-dihydropyridin-3-carboxamide] | 7.08 | 3.73 | 6.2 |
| COc1cc2nccc(Oc3ccc(NC(=O)c4cn(CC5CCOCC5)c5ccccc5c4=O)nc3)c2cc1OC [Compound 25, N-(5-((6,7-dimethoxyquinolin-4-yl)oxy)pyridin-2-yl)-4-oxo-1-((tetrahydro-2H-pyran-4-yl)methyl)-1,4-dihydroquinolin-3-carboxamide] | 6.69 | – | – |
| COc1cc2nccc(Oc3ccc(NC(=O)c4cc(CC5CCOCC5)cn(-c5ccc(C)cc5)c4=O)nc3)c2cc1OC [Compound 26, N-(5-((6,7-dimethoxyquinolin-4-yl)oxy)pyridin-2-yl)-oxo-5-((tetrahydro-2H-pyran-4-yl)methyl)-1-(p-tolyl)-1,2-dihydropyridin-3-carboxamide] | 7.32 | 1.75 | 13.2 |
| COc1cc2nccc(Oc3ccc(NC(=O)c4cn(C5CCOCC5)cc(-c5ccc(F)cc5)c4=O)nc3)c2cc1OC [Compound 27, N-(5-((6,7-dimethoxyquinolin-4-yl)oxy)pyridin-2-yl)-5-(4-fluorophenyl)-4-oxo-1-(tetrahydro-2H-pyran-4-yl)-1,4-dihydropyridin-3-carboxamide] | – | 5.02 | 4.6 |
| COc1cc2nccc(Oc3ccc(NC(=O)c4nn(C5CCOCC5)cc(-c5ccc(C)cc5)c4=O)cc3F)c2cc1OC [Compound 28] | 7.43 | 1.44 | 16 |

Reference: patent US20210177828A1, “TAM FAMILY KINASE /AND CSF1R KINASE INHIBITOR AND USE THEREOF” (Nanjing Transthera Biosciences Co., Ltd., priority 2018, published 2021)
